Results: patent US5010095A, “N-(W-substituted alkyl)-'-(imidazol-4-yl)alkyl)guanidine” (Cedona Pharmaceuticals B.V., priority 1986, dated 1991)
pEC50: −log10 of the molar value. “Also recorded” adds a separate entry of the source. Read-outs that look alike come from different tables or passages of the source.

How the values were obtained:
[1] = biological target: T1, histamine H1 (guinea-pig ileum) (Cavia porcellus, UniProt P31389); test: Histamine H1-activity, guinea-pig ileum
T1 construct: from tissue; host or cells: guinea-pig ileum (isolated organ)
T1 sequence (P31389 whole entry): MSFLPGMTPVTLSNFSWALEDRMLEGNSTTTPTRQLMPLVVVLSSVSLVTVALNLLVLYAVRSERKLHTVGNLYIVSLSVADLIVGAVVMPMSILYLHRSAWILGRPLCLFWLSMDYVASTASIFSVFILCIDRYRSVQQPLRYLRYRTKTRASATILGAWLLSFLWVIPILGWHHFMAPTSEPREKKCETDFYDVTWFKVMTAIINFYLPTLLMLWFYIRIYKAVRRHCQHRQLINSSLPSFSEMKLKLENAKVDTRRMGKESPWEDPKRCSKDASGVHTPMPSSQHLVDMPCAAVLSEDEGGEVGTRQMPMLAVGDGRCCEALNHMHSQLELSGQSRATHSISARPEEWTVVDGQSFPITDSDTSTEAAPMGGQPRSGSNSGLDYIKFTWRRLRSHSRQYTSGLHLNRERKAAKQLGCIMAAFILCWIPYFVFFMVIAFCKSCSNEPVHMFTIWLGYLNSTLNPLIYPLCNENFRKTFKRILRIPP
From the text: (§1) The values for the H1 -activity given are the mean of at least two experiments in quadruplicate, while the values for the H2 -activity result from at least two experiments in duplicate.

[2] = biological target: T2, histamine H2 (guinea-pig right atrium) (Cavia porcellus, UniProt P47747); test: Histamine H2-activity, guinea-pig right atrium
T2 construct: from tissue; host or cells: guinea-pig right atrium (isolated organ)
T2 sequence (P47747 whole entry): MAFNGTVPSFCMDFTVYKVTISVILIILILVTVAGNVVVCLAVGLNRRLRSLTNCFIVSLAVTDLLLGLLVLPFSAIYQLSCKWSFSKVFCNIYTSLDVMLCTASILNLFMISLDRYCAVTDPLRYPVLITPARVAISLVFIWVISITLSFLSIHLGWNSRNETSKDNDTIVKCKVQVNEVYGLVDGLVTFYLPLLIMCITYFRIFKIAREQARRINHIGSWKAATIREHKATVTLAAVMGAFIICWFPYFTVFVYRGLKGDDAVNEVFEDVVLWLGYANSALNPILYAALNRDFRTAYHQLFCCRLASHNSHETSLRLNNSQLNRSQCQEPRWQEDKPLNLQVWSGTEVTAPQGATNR
From the text: as §1
(§2) Guinea-pig right atrium H2
(§3) Ther., 19, 545-550 (1984).

[3] = biological target: T3, histamine H2 (guinea-pig gastric fundus) (Cavia porcellus, UniProt P47747); test: Histamine H2-activity, acid secretion of the isolated gastric fundus of the guinea-pig
T3 construct: acid secretion of the isolated gastric fundus of the guinea-pig; from tissue; host or cells: guinea-pig gastric fundus (isolated organ)
T3 sequence (P47747 whole entry): as above
From the text: as §1
(§4) Guinea-pig gastric acid secretion (H2)

histamine H1 = biological target: T4, histamine H1 (Cavia porcellus, UniProt P31389); test: Histamine H1-activity, overall discussion (ileum/trachea); parameters: species or system guinea-pig; details: structure-activity discussion
T4 construct: functional contraction
T4 sequence (P31389 whole entry): as the sequence (P31389 whole entry) above
Protocol: The results of pharmacological tests with said new compounds are summarized in Table A (H1 -activity) and Table B (H2 -activity). The values for the H1 -activity given are the mean of at least two experiments in quadruplicate, while the values for the H2 -activity result from at least two experiments in duplicate.
(§5) Male guinea-pigs (350-500 g) were killed by a blow on the head and the trachea removed. Single segments were cut from the trachea, loaded with 0.4 g and placed in an organ bath (35° C.) containing 120 mM NaCl, 6 mM KCl, 1 mM MgSO4, 2.5 mM CaCl2, 1 mM NaH2 PO4, […] and 6 mM glucose. The organ bath was gassed with oxygen containing 5% CO2. PD2, intrinsic acitivity and antagonistic activity of the test compounds were determined from isotonically recorded, cumulative dose-response curves.

histamine H2 [4] = biological target: T5, histamine H2 (Cavia porcellus, UniProt P47747); test: Histamine H2-activity, overall discussion (atrium/gastric fundus); parameters: species or system guinea-pig; details: atrium and fundus; structure-activity discussion
T5 construct: functional chronotropy and acid secretion
T5 sequence (P47747 whole entry): as the sequence (P47747 whole entry) above
From the text: as §1, §2, §3, §4

[5] = biological target: T6, histamine H1 (guinea-pig trachea) (Cavia porcellus, UniProt P31389); test: Histamine H1-activity, guinea-pig trachea; details: for Kb: ± 0,2, mean of at least two experiments in quadruplicate
T6 construct: Single segments were cut from the trachea; from tissue; host or cells: guinea-pig trachea (isolated segments)
T6 sequence (P31389 whole entry): as the sequence (P31389 whole entry) above
Protocol: as §1, §5

histamine H2 [6] = details: cited from earlier work
[7] = guinea-pig ileum, ±0,2, mean of at least two experiments in quadruplicate
[8] = guinea-pig right atrium, ±0,1, at least two experiments in duplicate
[9] = read-out: Histamine H2-activity, α (intrinsic activity), guinea-pig right atrium, at least two experiments in duplicate
[10] = guinea-pig gastric fundus, ±0,2, at least two experiments in duplicate
[11] = read-out: Histamine H2-activity, α (intrinsic activity), guinea-pig gastric fundus, at least two experiments in duplicate
[12] = guinea pig, read-out: Histamine H2-activity, atrium, α (intrinsic activity)
[13] = guinea pig, read-out: Histamine H2-activity, gastric fundus, α (intrinsic activity)
[14] = gastric fundus, versus compound I

Kb [1, 7] | pEC50 [2, 8] | Emax [2, 9] | pEC50 [3, 10] | Emax [3, 11] | Kb ([5]; guinea-pig trachea) | SMILES | H1-activity, comparison in words (histamine H1) | H2-activity, comparison in words (histamine H2 [4]) | other results
501 nM | 7.70 | 100% |  |  |  | N=C(NCCCc1c[nH]cn1)NCCC(c1ccccc1)c1ccccc1 [Compound IX, N-(3.3-diphenylpropyl)-N'-[3-(imidazol-4-yl)propyl]guanidine] | Analogous results; also recorded: almost as potent H1 -antagonists as compound I | Analogous results | H2-activity on the atrium, comparison in words ([2]; guinea-pig right atrium): remarkable high potency on the guinea-pig right atrium; also recorded: almost as potent as impromidine on the atrium; also recorded: most potent compounds of this series on the guinea-pig right atrium
25.1 nM | 6.40 | 100% | 6.50 | 70% | 15.8 nM | N=C(NCCCc1c[nH]cn1)NCCN(Cc1ccccc1)c1ccccc1 [Compound XI, N-[2-(N'-benzyl-N'-phenylamino)ethyl]-N"-[3-(imidazol-4-yl)propyl]guanidine] | slightly more potent H1 -antagonist than the oxygen analogue compound II; also recorded: most potent H1 -antagonists of this series of impromidine analogues |  | potency relative to histamine on the atrium, in words ([2]; atrium): about twice as potent as histamine on the atrium; activity relative to impromidine, atrium ([2]; atrium, % of the activity of impromidine): about 4%; activity relative to impromidine, gastric fundus ([3]; gastric fundus, % of the activity of impromidine): about 1%; activity relative to histamine, gastric fundus ([3]; gastric fundus, times the activity of histamine): 10 times
200 nM | 7.00 | 100% | 5.60 | 90% | 631 nM | N=C(NCC=C(c1ccccc1)c1ccccc1)NCCCc1c[nH]cn1 [Compound X] | almost as potent H1 -antagonists as compound I |  | decrease in H2-activity, atrium, on introduction of a double bond ([2]; atrium, introduction of a double bond (saturated analogue: IX)): 4 fold; H2-activity on the atrium, comparison in words ([2]; guinea-pig right atrium): most potent compounds of this series on the guinea-pig right atrium
 |  |  |  |  |  | NCCc1c[nH]cn1 [Histamine, reference compound] |  |  | Emax [2, 12]: 100%; Emax [3, 13]: 100%
 |  |  |  |  |  | N=C(NCCSC(c1ccccc1)c1ccccc1)NCCc1c[nH]cn1 [II, N-[2-(diphenylmethylthio)ethyl]-N'-[2-imidazol-4-yl)ethyl guanidine] | no effect on the H1 -activity | marked decrease in H2 -activity, both on the atrium and on the fundus | Kb [1]: 398 nM; pEC50 [2]: 4.80; Emax [2, 12]: 80%; pEC50 [3]: 4.90; Emax [3, 13]: 50%
31.6 nM | 5.50 | 90% | 5.80 | 40% | 25.1 nM | N=C(NCCCc1c[nH]cn1)NCCOC(c1ccccc1)c1ccccc1 [III, N-[2-(diphenylmethoxy)ethyl]-N'-[3-(imidazol-4-yl)propyl] guanidine] | most potent H1 -antagonists of this series of impromidine analogues |  | H1 potency relative to the starting compound, ileum ([1]; guinea-pig ileum, versus sulphur starting compound (I)): ten times as potent as the starting compound; H1 potency relative to the starting compound, trachea ([5]; guinea-pig trachea, versus sulphur starting compound (I)): 25 times; decrease in H2-agonism, atrium, versus compound I ([2]; atrium, sulphur of compound I replaced by oxygen): 20 fold; change in intrinsic activity on the gastric fundus, in words [3, 14]: remarkable decrease in intrinsic activity; change in pD2 on the gastric fundus, in words [3, 14]: less pronounced
 |  |  |  |  |  | Cc1[nH]cnc1CSCCNC(=N)NCCCc1c[nH]cn1 [Impromidine, N-[2-(5-methylimidazol-4-ylmethylthio)ethyl]-N'-[3-(imidazol-4-yl)propyl]guanidine, reference compound] |  |  | Kb [1]: 3160 nM; pEC50 [3]: 8.50; Emax [3, 13]: 100%; potency relative to histamine (histamine H2 [6]; dependent on the used test system, Proc. VIIIth Internat. Symp. Med. Chem. Uppsala 1985): 5-800 times; stimulation of gastric acid secretion, in words (histamine H2 [6]; drawback for clinical use): relatively high potency in stimulating the gastric acid secretion; histamine H2-agonist character, in words (histamine H2 [6]; literature): specific and the most potent histamine H2 -agonist; also recorded: either behaves like a partial or like a complete agonist
631 nM | 5.60 | 90% | 5.00 | 0% |  | N=C(NCCc1c[nH]cn1)NCCC(c1ccccc1)c1ccccc1 [VIII, N-(3.3-diphenylpropyl)-N'-[2-(imidazol-4-yl)ethyl] guanidine] | almost as potent H1 -antagonists as compound I |  | H2-activity on the atrium, comparison in words ([2]; guinea-pig right atrium): remarkable high potency on the guinea-pig right atrium
3160 nM | 7.20 | 100% | 7.60 | 100% |  | NC(=NCCCc1c[nH]cn1)NCCSCc1ccccc1 [XII, reference compound] | no change in H1 -activity |  | decrease in H2-activity, atrium, versus impromidine ([2]; guinea-pig atrium, 5-methylimidazole of impromidine replaced by phenyl): 4 fold; decrease in H2-activity, gastric fundus, versus impromidine ([3]; gastric fundus, 5-methylimidazole of impromidine replaced by phenyl): 8 fold
 |  |  |  |  |  | CN(C)CCCSC(=N)N [dimaprit, reference compound] |  |  | effect on resting state and histamine induced contractions of the trachea ([5]; up to 10^-3 M): neither effect on the resting state of the organ nor on the histamine induced contractions

SMILES | Kb [1, 7] | pEC50 [2, 8] | Emax [2, 9] | pEC50 [3, 10] | Emax [3, 11] | Kb ([5]; guinea-pig trachea) | H1-activity, comparison in words (histamine H1) | H2-activity, comparison in words (histamine H2 [4]) | other results
N=C(NCCCc1c[nH]cn1)NCCSC(c1ccccc1)c1ccccc1 [Compound I, N-[2-(diphenylmethylthio)ethyl]-N'-[3-(imidazol-4-yl)propyl] guanidine] | 316 nM | 6.80 | 100% | 6.10 | 100% |  |  |  | H2-activity on the atrium, comparison in words ([2]; guinea-pig right atrium): most potent compounds of this series on the guinea-pig right atrium; decrease in H2-agonism, fundus, versus compound XII ([3]; fundus, extra phenyl group in compound XII): 32 fold
N=C(NCCCc1c[nH]cn1)NCCSC(c1ccccc1)c1ccc(F)cc1 (stereo not drawn) [Compound VI, N-[2-(α-phenyl-4-fluorobenzylthio)ethyl]-N'-[3-(imidazol-4-yl)propyl]guanidine] | 251 nM | 5.90 | 80% | 5.50 | 40% | 158 nM | only little or no effect at all on the H1 -antagonism | strong decrease in H2 -activity | 
Cc1ccccc1C(SCCNC(=N)NCCCc1c[nH]cn1)c1ccccn1 (stereo not drawn) [Compound VII, N-[3-(imidazol-4-yl)propyl]-N'-(2-[2-methyl-alpha-(2-pyridyl)benzylthio]ethyl)guanidine] | 398 nM | 5.90 | 80% |  |  | 1000 nM | almost as potent H1 -antagonists as compound I | almost as potent H2 -antagonist as the para methyl and fluoro analogues | 
Cc1ccc(C(SCCNC(=N)NCCc2c[nH]cn2)c2ccccc2)cc1 (stereo not drawn) [Compound V] | 251 nM | 4.00 | 0% | 4.00 | 0% |  | Analogous results; also recorded: only little or no effect at all on the H1 -antagonism | Analogous results; also recorded: strong decrease in H2 -activity | 
Cc1ccc(C(SCCNC(=N)NCCCc2c[nH]cn2)c2ccccc2)cc1 (stereo not drawn) [IV, N-[3-(imidazol-4-yl)propyl]-N'-2-[α-phenyl-4-methylbenzylthio]ethyl guanidine] | 398 nM | 5.90 | 80% |  |  |  | only little or no effect at all on the H1 -antagonism | strong decrease in H2 -activity | 
